Source: PubChem BioAssay AID248 (DTP/NCI, 2004)
“And” between values parts separate entries of the source, which are not always exact repeats. Identical values can stand only once. Inconclusive results and toxic doses are left out. No stated cut-off is given here; in the data, active means T/C of 150% or more; inactive means T/C below 125%.

Test system: L1210 leukemia ip in BDF1 mice, survival T/C
Assay: NCI In Vivo Anticancer Drug Screen. Data for tumor model L1210 Leukemia (intraperitoneal) in B6D2F1 (BDF1) mice
Conditions: endpoint: mean survival time, higher = longer survival
Procedure, shortened: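 Transplantable tumor model; survival measured in treated vs vehicle control mice. Value = treated/control.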

[1] = dose: 100.0 mg/kg/injection, schedule: Q01DX009 (ip), vehicle: saline with Tween-80
[2] = dose: 100.0 mg/kg/injection, schedule: Q04DX003 (ip), vehicle: saline with Tween-80
[3] = dose: 200.0 mg/kg/injection, schedule: Q01DX009 (ip), vehicle: saline with Tween-80
[4] = dose: 200.0 mg/kg/injection, schedule: Q04DX003 (ip), vehicle: saline with Tween-80
[5] = dose: 400.0 mg/kg/injection, schedule: Q01DX009 (ip), vehicle: saline with Tween-80
[6] = dose: 100.0 mg/kg/injection, schedule: Q01DX001 (ip), vehicle: saline
[7] = dose: 200.0 mg/kg/injection, schedule: Q01DX001 (ip), vehicle: saline
[8] = dose: 400.0 mg/kg/injection, schedule: Q01DX001 (ip), vehicle: saline
[9] = dose: 100.0 mg/kg/injection, schedule: Q04DX003 (ip), vehicle: Klucel (hydroxypropylcellulose) (HPC)
[10] = dose: 200.0 mg/kg/injection, schedule: Q04DX003 (ip), vehicle: Klucel (hydroxypropylcellulose) (HPC)
[11] = dose: 400.0 mg/kg/injection, schedule: Q04DX003 (ip), vehicle: Klucel (hydroxypropylcellulose) (HPC)
[12] = dose: 100.0 mg/kg/injection, schedule: Q01DX009 (ip), vehicle: Klucel (hydroxypropylcellulose) (HPC)
[13] = dose: 200.0 mg/kg/injection, schedule: Q01DX009 (ip), vehicle: Klucel (hydroxypropylcellulose) (HPC)
[14] = dose: 400.0 mg/kg/injection, schedule: Q01DX009 (ip), vehicle: Klucel (hydroxypropylcellulose) (HPC)
[15] = dose: 100.0 mg/kg/injection, schedule: Q01DX009 (ip), vehicle: saline
[16] = dose: 100.0 mg/kg/injection, schedule: Q04DX003 (ip), vehicle: saline
[17] = dose: 200.0 mg/kg/injection, schedule: Q01DX009 (ip), vehicle: saline
[18] = dose: 200.0 mg/kg/injection, schedule: Q04DX003 (ip), vehicle: saline
[19] = dose: 400.0 mg/kg/injection, schedule: Q01DX009 (ip), vehicle: saline
[20] = dose: 50.0 mg/kg/injection, schedule: Q01DX009 (ip), vehicle: saline
[21] = dose: 100.0 mg/kg/injection, schedule: Q01DX001 (ip), vehicle: carboxymethylcellulose (CMC)
[22] = dose: 200.0 mg/kg/injection, schedule: Q01DX001 (ip), vehicle: carboxymethylcellulose (CMC)
[23] = dose: 400.0 mg/kg/injection, schedule: Q01DX001 (ip), vehicle: carboxymethylcellulose (CMC)
[24] = dose: 75.0 mg/kg/injection, schedule: Q01DX001 (ip), vehicle: saline
[25] = dose: 150.0 mg/kg/injection, schedule: Q01DX001 (ip), vehicle: saline
[26] = dose: 50.0 mg/kg/injection, schedule: Q01DX009 (ip), vehicle: saline with Tween-80

Measured: T/C

CC1=CC(C)(C)NC(=S)N1c1cccc2ccccc12
inactive: dose: 75.0 mg/kg/injection, schedule: Q01DX009 (ip), vehicle: saline with Tween-80 90 % of control | dose: 150.0 mg/kg/injection, schedule: Q01DX009 (ip), vehicle: saline with Tween-80 87 % of control | dose: 224.0 mg/kg/injection, schedule: Q01DX Z (ip), vehicle: methylcellulose (MC) 94 % of control | dose: 300.0 mg/kg/injection, schedule: Q01DX009 (ip), vehicle: saline with Tween-80 88 % of control | dose: 334.0 mg/kg/injection, schedule: Q01DX Z (ip), vehicle: methylcellulose (MC) 86 % of control | dose: 500.0 mg/kg/injection, schedule: Q01DX Z (ip), vehicle: methylcellulose (MC) 88 % of control | dose: 750.0 mg/kg/injection, schedule: Q01DX Z (ip), vehicle: methylcellulose (MC) 102 % of control

CCOc1c(Br)cc(Br)cc1C=O
inactive: [1] 97 % of control | [2] 103 % of control | [3] 94 % of control | [4] 109 % of control | [5] 110 % of control | dose: 400.0 mg/kg/injection, schedule: Q04DX003 (ip), vehicle: saline with Tween-80 103 % of control

CC1=NNC(c2ccco2)C1 (stereo not given)
inactive: [6] 91 % of control | [7] 94 % of control | [8] 100 % of control

S=C(NCc1ccccc1)C(=S)NCc1ccccc1
inactive: [9] 105 % of control | [10] 98 % of control

C=CCNC(=S)Nc1cccc(Cl)c1C
inactive: dose: 12.5 mg/kg/injection, schedule: Q01DX009 (ip), vehicle: Klucel (hydroxypropylcellulose) (HPC) 87 % of control | dose: 25.0 mg/kg/injection, schedule: Q01DX009 (ip), vehicle: Klucel (hydroxypropylcellulose) (HPC) 101 % of control | dose: 50.0 mg/kg/injection, schedule: Q01DX009 (ip), vehicle: Klucel (hydroxypropylcellulose) (HPC) 96 % of control | [9] 90 % of control | [10] 100 % of control | [11] 94 % of control

c1ccc(-c2cnoc2-c2ccccc2)cc1
inactive: [12] 107 % of control | [9] 111 % of control | [13] 106 % of control | [10] 95 % of control | [14] 102 % of control | [11] 101 % of control

c1ccc2cc3c(cc2c1)Cn1c-3nc2ccccc21
inactive: [6] 108 % of control | [15] 97 % of control | dose: 100.0 mg/kg/injection, schedule: Q01DX015 (ip), vehicle: saline 95 % of control | [16] 98 % of control | [7] 100 % of control | [17] 95 % of control | dose: 200.0 mg/kg/injection, schedule: Q01DX015 (ip), vehicle: saline 97 % of control | [18] 93 % of control | [8] 100 % of control | [19] 112 % of control | dose: 400.0 mg/kg/injection, schedule: Q04DX003 (ip), vehicle: saline 96 % of control

OCC1SC(O)C(O)C(O)C1O (stereo not given)
inactive: [20] 102 % of control | dose: 50.0 mg/kg/injection, schedule: Q01DX009 (oral), vehicle: saline 100 % of control | [15] 102 % of control | dose: 100.0 mg/kg/injection, schedule: Q01DX009 (oral), vehicle: saline 102 % of control | [17] 112 % of control | dose: 200.0 mg/kg/injection, schedule: Q01DX009 (oral), vehicle: saline 98 % of control | [19] 109 % of control | dose: 400.0 mg/kg/injection, schedule: Q01DX009 (oral), vehicle: saline 96 % of control

CN(C)CC(=O)CC12CC3CC(CC(C3)C1)C2
inactive: dose: 100.0 mg/kg/injection, schedule: Q04DX002 (ip), vehicle: saline 94 % of control | dose: 200.0 mg/kg/injection, schedule: Q04DX002 (ip), vehicle: saline 100 % of control | dose: 400.0 mg/kg/injection, schedule: Q04DX002 (ip), vehicle: saline 89 % of control

CN(C)CCC=C1c2ccccc2C=Cc2ccccc21
inactive: dose: 3.12 mg/kg/injection, schedule: Q01DX009 (ip), vehicle: saline 98 % of control | dose: 6.25 mg/kg/injection, schedule: Q01DX009 (ip), vehicle: saline 93 % of control and 104 % of control | dose: 12.5 mg/kg/injection, schedule: Q01DX009 (ip), vehicle: saline 107 % of control and 96 % of control | dose: 25.0 mg/kg/injection, schedule: Q01DX009 (ip), vehicle: saline 98 % of control and 101 % of control | dose: 25.0 mg/kg/injection, schedule: Q04DX003 (ip), vehicle: saline 112 % of control and 103 % of control | [20] 109 % of control | dose: 50.0 mg/kg/injection, schedule: Q04DX003 (ip), vehicle: saline 98 % of control and 105 % of control

C=CCNC(=O)C1C2C=CC(C2)C1C(=O)NCC=C (stereo not given)
inactive: [2] 103 % of control | [4] 103 % of control

COc1cc(N=Nc2ccccc2OC)ccc1N
inactive: dose: 50.0 mg/kg/injection, schedule: Q01DX001 (ip), vehicle: carboxymethylcellulose (CMC) 97 % of control | [21] 109 % of control | [22] 106 % of control | [23] 101 % of control

CCCCCCCCCCCCCCCCSC1CC(=O)N(c2ccc3c(c2)Cc2ccccc2-3)C1=O (stereo not given)
inactive: [9] 96 % of control | [10] 96 % of control | [11] 100 % of control

CNC(=O)CS(=O)(=O)c1ccc(C)cc1
inactive: [6] 97 % of control | [7] 95 % of control | [8] 93 % of control

O=S(=O)(O)c1ccccn1
inactive: [16] 98 % of control | [18] 93 % of control

ClC1=NC(c2ccccc2)N2C(Cl)C12 (stereo not given)
inactive: dose: 100.0 mg/kg/injection, schedule: Q01DX001 (ip), vehicle: saline with Tween-80 103 % of control | [1] 104 % of control | dose: 200.0 mg/kg/injection, schedule: Q01DX001 (ip), vehicle: saline with Tween-80 95 % of control | [3] 98 % of control | dose: 400.0 mg/kg/injection, schedule: Q01DX001 (ip), vehicle: saline with Tween-80 95 % of control | [5] 104 % of control

Cc1cc(C)c(C(=O)c2ccc([N+](=O)[O-])cc2)c(C)c1
inactive: [12] 98 % of control | [9] 105 % of control | [13] 86 % of control | [10] 95 % of control | [14] 86 % of control | [11] 94 % of control

CCOC(=O)CN1C(=O)Cc2ccccc21
inactive: dose: 75.0 mg/kg/injection, schedule: Q04DX002 (ip), vehicle: saline with Tween-80 101 % of control | dose: 150.0 mg/kg/injection, schedule: Q04DX002 (ip), vehicle: saline with Tween-80 108 % of control | dose: 300.0 mg/kg/injection, schedule: Q04DX002 (ip), vehicle: saline with Tween-80 104 % of control

CCCCCCCCCCCCCCCCNc1cccc2ccccc12
inactive: [9] 90 % of control | [10] 90 % of control | [11] 91 % of control

CN1C2CCCCC1CC(=O)NC2 (stereo not given)
inactive: [24] 98 % of control | [25] 101 % of control

COc1ccc(C(=O)CCC(=O)O)cc1
inactive: [1] 102 % of control | [3] 93 % of control | [5] 91 % of control

C/C(Cc1cc(C)[nH]c(=S)n1)=N\NC(N)=O
inactive: [26] 92 % of control | [1] 92 % of control

CC1(C)OC2C(=O)C3COC(O3)C2O1 (stereo not given)
inactive: [21] 106 % of control | [22] 106 % of control | [23] 103 % of control

Cn1c(=O)cn[nH]c1=O
inactive: [26] 100 % of control | [1] 108 % of control | [3] 103 % of control

C=CCCC1(Cc2ccccc2)C(=O)NC(=O)NC1=O
inactive: [24] 97 % of control | [25] 97 % of control

CC(C)(CO)N=Cc1cc([N+](=O)[O-])ccc1O
inactive: [6] 110 % of control | [7] 107 % of control | [8] 110 % of control

NC(N)=NCCCC(NC(=O)OCc1ccccc1)C(=O)O (stereo not given)
inactive: [12] 106 % of control and 94 % of control | [9] 94 % of control and 97 % of control | [13] 109 % of control and 91 % of control | [10] 86 % of control and 99 % of control | [14] 97 % of control and 87 % of control | [11] 92 % of control
